Seven molecules from patent publication US11021488B2, “Hetero-substituted cyclic lactone analogues and uses thereof” (BioVentures, LLC, priority 2015, dated 2021) can be followed below.

In one series the test system is MV4-11 cells. As to the kind of experiment: Cytotoxic activity of SLs against MV4-11 cells (flow cytometry, YO-PRO-1 / 7-AAD). The series is classed as cell-based. To be noted: MV4-11 AML cell line, cell viability at 36 hours, triplicate. The method, then:
Following this promising data, additional SLs were studied. This included glaucolide A (FIG. 5A), glaucolide E (FIG. 5B) and calaxin (FIG. 4A). Further, an additional compound Bahia I (FIG. 11) was synthesized (described below) and evaluated. The cytotoxicity of these compounds was determined using the AML cell line, MV4-11. MV4-11 cells were treated with the compounds at varying concentrations in triplicate. Cells were then stained with YO-PRO-1 and 7-aminoactinomycin D (7-AAD). YO-PRO-1 stains apoptotic cells and 7-ADD detects cell permeability. At 36 hours cell viability was measured via flow cytometry.
In general terms: A flow cytometer gives signals particle by particle.

For a further series, the system named is AML primary samples. Briefly: Activity of SLs against AML primary samples.
Another series is described as follows: Solubility in water. The series is classed as physicochemical.
For another series, the system named is MOLM-13_BLIV cells. As to the kind of experiment: In vivo efficacy in NSG mice injected with MOLM-13_BLIV leukemia cells (luciferin imaging). To be noted: 2.5 mg/kg in 20% DMSO i.p. every other day, imaged Day 23 and Day 31, vs vehicle. On the procedure: To evaluate the efficacy of bahia II (BAH) in vivo, 6-8 week old NSG mice were injected i.v. via tail vein with 2.5×10^5 MOLM-13_BLIV cells. Two weeks after injection mice were injected with 3 mg of luciferin to visualize the leukemia cells using the IVIS Spectrum Imager. This was denoted time 0. Mice were randomized into 2 groups: (1) Vehicle (DMSO 20%) and (2) bahia II (BAH) (2.5 mg/kg in 20% DMSO). Mice were treated with vehicle or BAH every other day. After 3 doses, administered by i.p. injection, mice were imaged to evaluate tumor progression (Day 23). One week after the first 3 doses, the mice were treated and evaluated again in the same manner (Day 31).

Series [1] concerns normal peripheral blood mononuclear cells (PBMNCs). Briefly: Toxicity against normal peripheral blood mononuclear cells compared with leukemic cells. To be noted: PBMNCs compared with leukemic cells (FIG. 14). The series is classed as cell-based. An excerpt: The cytotoxicity of Bahia II against leukemic cells was compared with its activity against normal peripheral blood mononuclear cells (PBMNCs) (FIG. 14).

On to `C=C(C)C(=O)O[C@@H]1C[C@@]2(C)OC(=CC2=O)/C(C)=C\[C@H]2OC(=O)C(=C)[C@@H]21` [Calaxin], for which the “LD50” value in the series on MV4-11 cells was 0.0544 µM.

For the molecule `C=C1C(=O)O[C@@H]2/C=C(\C)CC/C=C(\C)C[C@@H](OC(=O)/C(=C/CO)CO)[C@@H]12` [Eupatoriopicrin], the “LD50” value with MV4-11 cells was 1.09 µM. Further, in the series on AML primary samples, the “Average LD50” value stood at 5.65 µM.

Consider Glaucolide E, for which, in the series on MV4-11 cells, the “LD50” value is 1.12 µM.

With Bahia I, the “LD50” value in the series on MV4-11 cells came to 2.80 µM.

In the case of `C=C1C(=O)O[C@@H]2[C@H]3C(C)=CC(=O)C3=C(C)CC[C@@H]12` [DHL, Dehydroleucodine, reference compound], in the series on MV4-11 cells, the “LD50” value is 3.19 µM. In addition, the “Average LD50” value in the series on AML primary samples is 7.06 µM.

Consider `C=C1C(=O)OC2C1C(OC(=O)/C(=C/CO)CO)CC1(CO1)C1CC=C(C)C21` (centres unmarked) [Bahia II], for which the “LD50” value with MV4-11 cells worked out at 1.21 µM. For the same molecule, the solubility in water in the series “Solubility in water” (mass concentration) worked out at 1750 ± 60 µg/mL; in “Solubility in water” (molar), 465 µM. Also, in the series on MOLM-13_BLIV cells, the “radiance emitted from tumor cells” value is recorded as “significant reduction in radiance”. Further, the “toxicity against normal cells versus leukemia cells” value in series [1] is “much lower toxicity against normal cells”. In addition, the “Average LD50” value in the series with AML primary samples turned out to be 4.64 µM.

With Glaucolide A, the “LD50” value in the series with MV4-11 cells came to 1.82 µM.
